The values below are quoted from earlier work in patent US12453819B2, “Injector” (Antares Pharma, Inc., priority 2018, dated 2025).

Counter-ions that a name gives are not always drawn.

In the case of `C=CCN1CC[C@]23c4c5ccc(O)c4O[C@H]2C(=O)CC[C@@]3(O)[C@H]1C5` [Naloxone, 17-allyl-4,5α-epoxy, 3-14-dihydroxymorphine-6-one], the “log P” value is given as 1.92.

Regarding `C=CCN1CC[C@]23c4c5ccc(O)c4O[C@H]2C(=O)CC[C@@]3(O)[C@H]1C5` [Naloxone hydrochloride], the “solubility in water: parts of water dissolving one part” value (as described in USP (soluble)) was 10-30 parts of water. Besides, where the note is “descriptive term”, the solubility in alcohol entry is “slightly soluble”, the solubility in chloroform entry is “practically insoluble”, the solubility in ether result is “practically insoluble” and the solubility in water result was “soluble”.

By log P is commonly meant the decadic logarithm of the partition coefficient of the neutral form, usually between octanol and water.
